Here are results for three compounds from publication PMC8073686, “Characterization of Subtype Selective Cannabinoid CB2 Receptor Agonists as Potential Anti-Inflammatory Agents” (Pharmaceuticals, 2021).

Read-outs that look alike come from different tables or passages of the source.

The target in test [1] is T1, CB1 receptor (Homo sapiens, UniProt P21554).
T1 construct: expressed in transfected cells; host or cells: HEK293T cells (called 'HEK293 cells' in Results), calcium phosphate transfection, membrane preparation
Details: method as in PMID 30951717. Conditions: cited from earlier work.

Test [2] has as its target T2, CB2 (Homo sapiens, UniProt P34972).
T2 construct: expressed in transfected cells; host or cells: HEK293T cells, calcium phosphate transfection, membrane preparation
Details: method as in PMID 30951717. Particulars: stimulation of [35S]GTPγS binding; determined previously; cited from earlier work.

Test [3] relates to TNF-α mRNA in Jurkat cells. Also noted: method as in PMID 33712283. Conditions: concentration not given; cited from earlier work.
Test [4] deals with T2, CB2. Details: method as in PMID 30951717. Conditions: competition with [3H]CP55,940; determined previously; cited from earlier work.
For test [5], the system named is TNF-α production in Jurkat cells. Also noted: method as in PMID 33712283. Particulars: concentration not given; cited from earlier work.
The target in test [6] is T1, CB1 receptor. As to the kind of experiment: Competitive [3H]CP55,940 radioligand binding, membrane from CB1 expressing HEK293 cells. The text has this: (§1) To evaluate binding affinity of ABK5 analogs that have a difference in the position of substituents in the N-phenyl ring (Figure 1), we performed competitive radiolabeled ligand binding assays using cell membrane from HEK293T cells transfected with human CB2 receptors. […] ABK5-1, ABK5-2, and ABK5-6 dose-dependently competed with [^3H]CP55,940 and decreased the specific binding of the radiolabeled agonist, which reflects the binding of test compounds to CB2. […] Therefore, ABK5-5 was not considered for further evaluation in this study. […] We also examined CB2 selectivity (versus CB1) of the three compounds by performing similar binding assays using membrane from CB1 expressing HEK293 cells instead of CB2 expressing cells. […] Therefore, ABK5-1 and 5-2 maintained the CB2 subtype selectivity of ABK5.
(§2) In the experiment, 1 × 10^6 HEK293T cells were seeded in a 10-cm cell culture dish and cultured for 24 h. Cells were transfected with CB1 or CB2 using the calcium phosphate method. Approximately one day after transfection, cells were harvested and centrifuged at 4 °C for 5 min at 500× g. The pellet was washed with phosphate buffered saline (PBS) twice and resuspended in PBS containing 1% protease-inhibitor cocktail (Sigma-Aldrich, St. Louis, MO, USA) consisting of 104 mM 4-(2-aminoethyl) benzene sulfonyl fluoride hydrochloride (AEBSF), 80 μM apronitin, 4 mM bestatin, 1.64 mM E-64, 2 mM leupeptin, 1.5 mM pepstatin A. Then the cells were subjected to nitrogen cavitation under 750 psi for 5 min using a Parr cell disruption bomb. The lysate was centrifuged at 500× g for 10 min at 4 °C and the supernatant was spun at 116,000× g for 45 min at 4 °C. The pellet, consisting of the cell membrane expressing CB1 or CB2, was resuspended in TME buffer solution (25 mM Tris-HCl, 5 mM MgCl2, and 1 mM EDTA, pH 7.4) with 7% (w/v) sucrose/TME buffer. The concentration of the membrane protein was determined by the Bradford assay (Bradford, 1976).
Membrane protein was mixed with 1 nM to 10 μM of the test compounds and 1 nM [^3H]CP55,940 (164.9 Ci/mmol; PerkinElmer life Sciences, Waltham, MA, USA), and TME buffer supplemented with 0.2% BSA was used to bring the total volume to 200 μL. [^3H]CP55,940 acts as tracer and agonists that bind the target receptor compete with [^3H]CP55,940. Samples were incubated for 1 h at 30 °C. Ten μM unlabeled CP55,940 was used to determine non-specific binding. Reactions were stopped by adding 5% BSA/TME buffer (w/v) and samples were filtered through a Brandel cell harvester using Whatman GF/C filter paper. Ultima Gold XR liquid scintillation cocktail (PerkinElmer Life Sciences, Waltham, MA, USA) was then added and vortexed. A Beckman Coulter 6500 liquid scintillation counter was used to measure the radioactivity of the samples.
Results are presented as the mean ± standard deviation (S.D.). The ligand binding assays and the GTPγS binding assays were both carried out in duplicate for three independent experiments. The Ki values in the ligand binding assay were calculated using the Prism software (GraphPad Software Inc., San Diego, CA, USA), using IC50 values obtained from non-linear regression fitted to the one-site binding model. The Cheng-Prusoff equation [48], which is used for calculation of Ki value is shown below. (1) Ki=IC50/1+L/Kd

Test [7] addresses T2, CB2. As to the kind of experiment: [35S]GTPγS binding assay (G-protein coupling), CB2 containing HEK293T cell membrane. The class given is biochemical. Particulars: stimulation of [35S]GTPγS binding; mean ± S.D. The method, then:
We also examined if the compounds can induce G-protein coupling and act as CB2 agonists. Three compounds, ABK5-1, ABK5-2, and ABK5-6, were subjected to [^35S]GTPγS binding assays. Increasing concentrations, from 1 nM to 10 μM of the test compounds, were incubated with CB2 containing HEK293T cell membrane and [^35S]GTPγS, which binds to Gi/o in the membrane upon CB2 activation and G-protein coupling. All three compounds stimulated dose-dependent increases of specific [^35S]GTPγS binding (Figure 3).
as §2
GTPγS binding assay buffer ([…], pH 7.4, 3 mM MgCl2, 0.2 mM EGTA, and 100 mM NaCl) membrane protein, 1 nM to 10 μM of the test compounds, 0.1 nM [^35S] GTPγS (1250 Ci/mmol; PerkinElmer Life Sciences, Waltham, MA, USA), 0.1% fatty acid free BSA (w/v), 10 μM guanosine diphosphate (GDP) and GTPγS was incubated for 1 h at 30 °C with shaking. […] A Beckman Coulter 6500 liquid scintillation counter was used to measure the radioactivity of the samples. […]

Test [8] addresses T2, CB2. As to the kind of experiment: Competitive [3H]CP55,940 radioligand binding, CB2-transfected HEK293T cell membrane.
From the text: as §1, §2
Membrane protein was mixed with 1 nM to 10 μM of the test compounds and 1 nM [^3H]CP55,940 (164.9 Ci/mmol; PerkinElmer life Sciences, Waltham, MA, USA), and TME buffer supplemented with 0.2% BSA was used to bring the total volume to 200 μL. [^3H]CP55,940 acts as tracer and agonists that bind the target receptor compete with [^3H]CP55,940. Samples were incubated for 1 h at 30 °C. Ten μM unlabeled CP55,940 was used to determine non-specific binding. […] A Beckman Coulter 6500 liquid scintillation counter was used to measure the radioactivity of the samples.
Results are presented as the mean ± standard deviation (S.D.). […] The Ki values in the ligand binding assay were calculated using the Prism software (GraphPad Software Inc., San Diego, CA, USA), using IC50 values obtained from non-linear regression fitted to the one-site binding model. […]

T2 sequence (P34972 whole entry): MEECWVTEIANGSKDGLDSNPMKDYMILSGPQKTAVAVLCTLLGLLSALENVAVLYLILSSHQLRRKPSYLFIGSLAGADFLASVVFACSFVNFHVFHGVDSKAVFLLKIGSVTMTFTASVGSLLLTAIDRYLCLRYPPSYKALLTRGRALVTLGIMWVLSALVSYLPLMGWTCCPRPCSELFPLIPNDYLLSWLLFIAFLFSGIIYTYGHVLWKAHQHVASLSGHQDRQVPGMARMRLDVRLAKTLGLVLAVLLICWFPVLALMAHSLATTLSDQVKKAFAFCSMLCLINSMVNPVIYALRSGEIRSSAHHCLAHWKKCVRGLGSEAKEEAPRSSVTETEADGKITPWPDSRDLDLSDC
T1 sequence (P21554 whole entry): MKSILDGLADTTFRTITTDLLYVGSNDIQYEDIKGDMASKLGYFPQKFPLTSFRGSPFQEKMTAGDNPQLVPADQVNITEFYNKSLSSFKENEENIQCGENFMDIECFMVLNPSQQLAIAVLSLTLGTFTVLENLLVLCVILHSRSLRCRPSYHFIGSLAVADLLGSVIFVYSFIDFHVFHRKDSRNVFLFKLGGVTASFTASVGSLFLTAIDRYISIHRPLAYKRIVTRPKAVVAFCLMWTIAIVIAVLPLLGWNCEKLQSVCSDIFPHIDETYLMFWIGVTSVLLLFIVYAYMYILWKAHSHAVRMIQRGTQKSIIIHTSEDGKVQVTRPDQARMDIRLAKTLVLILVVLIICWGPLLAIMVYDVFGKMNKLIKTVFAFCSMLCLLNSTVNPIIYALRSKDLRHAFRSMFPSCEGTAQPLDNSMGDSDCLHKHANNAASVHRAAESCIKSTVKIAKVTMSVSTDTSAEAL

For the compound `CCOC(=O)c1ccccc1NC(=O)CN(c1cccc(C)c1C)S(=O)(=O)c1ccccc1` [ABK5, ethyl 2(2-(N-(2,3-dimethylphenyl)phenylsulfonamido)acetamido)benzoate], on CB1 receptor [1] (N.B. = no specific binding detected up to 10 μM, determined previously), the “Ki CB1 (CP55,940)” value is given as “N.B. ^c”. Further, the “CB1 binding: no binding detected up to” value at CB1 receptor [1] is > 10 µM. For the same compound, the EC50 on CB2 [2] was 4 ± 3 nM. For the same compound, the “decrease of TNF-α mRNA” value in test [3] is given as 33%. The Ki on CB2 [4] was 16 ± 14 nM. Moreover, the “decrease of TNF-α protein level” value in test [5] is 30%.

In the case of `CCOC(=O)c1ccccc1NC(=O)CN(c1cc(C)ccc1C)S(=O)(=O)c1ccccc1` [ABK5-6], the “CB1 binding (in words)” value on CB1 receptor [6] is “weak CB1 binding in the micromolar range”. For the same compound, the Ki at CB1 receptor [6] (competition with [3H]CP55,940, N.B. = no specific binding detected up to 10 μM of test compounds) was > 1000 nM; at CB2 [8] (competition with [3H]CP55,940, mean ± S.D.) it was 14 ± 2 nM. The compound further showed an EC50 on CB2 [7] of 10 ± 5 nM.

For `CCOC(=O)c1ccc(NC(=O)CN(c2cccc(C)c2C)S(=O)(=O)c2ccccc2)cc1` [ABK5-5], on CB2 [8] (data not shown, Ki not calculated), the “CB2 binding, extent as % of total binding” value is reported as ≤ 60%.
